In US20240116985A1, “STAPLED PEPTIDES AND METHODS THEREOF” (priority 2020, published 2024):
Values after ≈ are worked out from the molar mass of the structure shown. Like-named read-outs stand apart in the source and are kept apart here.

Experiments:
CHI Log D procedure = type: physicochemical; conditions: for CHI Log D: pH 7.4
[1] = biological target: T1, full-length beta-Catenin (Uniprot ID P35222) (Homo sapiens, UniProt P35222); assay: Fluorescence polarization IC50 (beta-catenin / 5FAM-TCF4 10-53 competition); type: binding
T1 construct: 10 nM full-length beta-Catenin (Uniprot ID P35222)
T1 sequence (P35222 1-781): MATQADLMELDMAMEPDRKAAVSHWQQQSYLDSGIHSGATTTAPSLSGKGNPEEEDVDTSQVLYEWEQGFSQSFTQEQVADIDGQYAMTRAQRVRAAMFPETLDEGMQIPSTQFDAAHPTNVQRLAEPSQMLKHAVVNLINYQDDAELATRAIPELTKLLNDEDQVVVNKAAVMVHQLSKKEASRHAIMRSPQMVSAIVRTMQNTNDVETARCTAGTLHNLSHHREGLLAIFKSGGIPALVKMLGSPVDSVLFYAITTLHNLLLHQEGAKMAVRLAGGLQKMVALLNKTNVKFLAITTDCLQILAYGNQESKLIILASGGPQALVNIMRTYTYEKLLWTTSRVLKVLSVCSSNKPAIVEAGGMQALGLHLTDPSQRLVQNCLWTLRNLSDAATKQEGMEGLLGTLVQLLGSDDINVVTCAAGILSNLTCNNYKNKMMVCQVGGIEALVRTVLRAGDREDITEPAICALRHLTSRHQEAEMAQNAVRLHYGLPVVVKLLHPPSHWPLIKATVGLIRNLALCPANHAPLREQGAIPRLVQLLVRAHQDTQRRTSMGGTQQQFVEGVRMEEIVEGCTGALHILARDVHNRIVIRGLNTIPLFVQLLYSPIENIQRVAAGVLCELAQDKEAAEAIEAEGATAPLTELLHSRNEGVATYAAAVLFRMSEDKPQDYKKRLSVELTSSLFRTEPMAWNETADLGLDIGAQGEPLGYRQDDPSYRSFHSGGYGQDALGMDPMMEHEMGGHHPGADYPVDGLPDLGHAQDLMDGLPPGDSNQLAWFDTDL

Solubility in PBS = type: physicochemical
Outline: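 The PBS solution was ultracentrifuged and the supernatant analyzed by HPLC. Its peak area was divided by that of a 50 μM peptide DMSO reference injection and multiplied by 50 uM to give solubility.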

[2] = fluorescence polarization, beta-catenin, read-out: FP EC50
[3] = fluorescence polarization, read-out: beta-Catenin FP IC50

For `CC(=O)N1CCC[C@]12CC=CCCCC1(CCCC=CCCCCCC[C@@](C)(C(=O)N[C@@H](Cc3ccccc3)C(=O)N[C@@H](Cc3c[nH]c4ccccc34)C(=O)N[C@@H](CCC(N)=O)C(N)=O)NC(=O)[C@H](C(C)C)NC(=O)[C@H](Cc3ccco3)NC(=O)[C@H](C)NC(=O)[C@H](C)NC(=O)[C@H](CC(=O)O)NC(=O)[C@H](CC(=O)O)NC1=O)NC(=O)[C@H](C)NC(=O)[C@H](CC(=O)O)NC2=O` (stereo partly drawn) [I-328, Ac-PL3-Asp-Ala-B5-Asp-Asp-Ala-Ala-2FurA-Val-S8-Phe-Trp-Gln-NH2], the “CHI Log D” value (CHI Log D procedure) was 1.983, the IC50 ([1]; Table E2-1, read-out: beta-Catenin FP IC50) was 1910 nM and the IC50 [1, 2] was 1910 nM. For the same molecule, the “Solubility” value (Solubility in PBS) was 44 µM (≈ 77.9 µg/mL).
For `CC[C@H](C)[C@@H]1NC(=O)[C@H](CC(=O)O)NC(=O)[C@]2(CC=CCCCC3(CCCC=CCCCCCC[C@@](C)(C(=O)N[C@@H](Cc4ccccc4)C(=O)N[C@@H](Cc4csc5ccccc45)C(=O)N[C@@H](Cc4c[nH]c5ccccc45)C(N)=O)NC(=O)[C@H](CCC(N)=O)NC(=O)[C@H](Cc4ccccc4)NC(=O)[C@H](C)NC(=O)[C@H](C)NC(=O)[C@H](CCC(=O)O)NC(=O)[C@H](CC(=O)O)NC3=O)NC1=O)CCCN2C(C)=O` (stereo partly drawn) [I-644, Ac-PL3-Asp-Ile-B5-Asp-Glu-Ala-Ala-Phe-Gln-S8-Phe-BztA-Trp-NH2], the “CHI Log D” value (CHI Log D procedure) was 2.837, the IC50 [1, 3] was 808 nM and the IC50 ([1]; read-out: FP EC50) was 808 nM. The “Solubility” value (Solubility in PBS) was 22 µM (≈ 42.7 µg/mL).
With `CC(=O)N1CCC[C@]12CC=CCCCC1(CCCC=CCCCCCC[C@@](C)(C(=O)N[C@@H](Cc3ccccc3)C(=O)N[C@@H](Cc3csc4ccccc34)C(=O)N[C@H](Cc3c[nH]cn3)C(N)=O)NC(=O)[C@H](CC(N)=O)NC(=O)[C@H](Cc3ccccc3)NC(=O)[C@H](C)NC(=O)[C@H](C)NC(=O)[C@H](CCC(=O)O)NC(=O)[C@H](CC(=O)O)NC1=O)NC(=O)[C@H](CC(C)C)NC(=O)[C@H](CC(=O)O)NC2=O` (stereo partly drawn) [I-745, Ac-PL3-Asp-Leu-B5-Asp-Glu-Ala-Ala-Phe-Asn-S8-Phe-BztA-dHis-NH2] the “CHI Log D” value (CHI Log D procedure) was 2.61, the IC50 [1, 3] was 80 nM and the IC50 ([1]; read-out: FP EC50) was 80 nM. The “Solubility” value (Solubility in PBS) was 10 µM (≈ 18.8 µg/mL).
With `CC(=O)N1CCC[C@]12CC=CCCCC1(CCCC=CCCCOC(=O)N3CC[C@@](C(=O)N[C@@H](Cc4ccsc4)C(=O)N[C@@H](Cc4csc5ccccc45)C(=O)N[C@@H](CO)C(N)=O)(C3)NC(=O)[C@H](CO)NC(=O)[C@H](Cc3ccccc3)NC(=O)[C@H](C)NC(=O)[C@H](C)NC(=O)[C@H](Cc3cccc(C(=O)O)c3)NC(=O)[C@H](CC(=O)O)NC1=O)NC(=O)[C@H](CC(C)(C)C)NC(=O)[C@H](CC(=O)O)NC2=O` (stereo partly drawn) [I-984, Ac-PL3-Asp-Npg-B5-Asp-3COOHF-Ala-Ala-Phe-Ser-PyrS2-3Thi-BztA-Ser-NH2] the “CHI Log D” value (CHI Log D procedure) was 1.8, the IC50 [1, 2] was 179 nM and the IC50 ([1]; read-out: beta-Catenin FP IC50) was 179 nM. For the same molecule, the “Solubility” value (Solubility in PBS) was 45 µM (≈ 86.7 µg/mL).
For `CC(=O)N1CCC[C@]12CC=CCCCC1(CCCC=CCCCOC(=O)N3CC[C@@](C(=O)N[C@@H](Cc4ccsc4)C(=O)N[C@@H](Cc4csc5ccccc45)C(=O)N[C@@H](CC(C)C)C(N)=O)(C3)NC(=O)[C@H](CC(N)=O)NC(=O)[C@H](Cc3ccccc3)NC(=O)[C@H](C)NC(=O)[C@H](C)NC(=O)[C@H](CN(CC(=O)O)CC(F)(F)F)NC(=O)[C@H](CC(=O)O)NC1=O)NC(=O)[C@H](CC(C)(C)C)NC(=O)[C@H](CC(=O)O)NC2=O` (stereo partly drawn) [I-947, Ac-PL3-Asp-Npg-B5-Asp-TfeGA-Ala-Ala-Phe-Asn-PyrS2-3Thi-BztA-Leu-NH2], the “CHI Log D” value (CHI Log D procedure) was 2.271, the IC50 [1, 2] was 1050 nM and the IC50 ([1]; read-out: beta-Catenin FP IC50) was 1050 nM. The “Solubility” value (Solubility in PBS) was 47 µM (≈ 94.7 µg/mL).
With `CC(=O)N1CCC[C@]12CC=CCCCC1(CCCC=CCCCCCC[C@@](C)(C(=O)N[C@@H](Cc3ccccc3Cl)C(=O)N[C@@H](Cc3csc4ccccc34)C(=O)N[C@@H](C(N)=O)[C@H](C)O)NC(=O)[C@H](CC(C)C)NC(=O)[C@H](Cc3ccccc3)NC(=O)[C@H](C)NC(=O)[C@H](C)NC(=O)[C@H](CCC(=O)O)NC(=O)[C@H](CC(=O)O)NC1=O)NC(=O)[C@H](CC(C)(C)C)NC(=O)[C@H](CC(=O)O)NC2=O` (stereo partly drawn) [I-1098, Ac-PL3-Asp-Npg-B5-Asp-Glu-Ala-Ala-Phe-Leu-S8-2ClF-BztA-dThr-NH2] the chromatographic logD (CHI Log D procedure; pH 7.4, CHI Log D) was 3.54, the IC50 ([1]; read-out: beta-Catenin FP IC50) was 100 nM and the “Solubility” value (Solubility in PBS) was 10 µM (≈ 18.9 µg/mL).
In the case of `CC(=O)N1CCC[C@]12CC=CCCCC1(CCCC=CCCCCCC[C@@](C)(C(=O)N[C@@H](Cc3ccccc3)C(=O)N[C@@H](Cc3csc4ccccc34)C(=O)N[C@@H](CCO)C(N)=O)NC(=O)[C@H](CCC(N)=O)NC(=O)[C@H](Cc3ccccc3)NC(=O)[C@H](C)NC(=O)[C@H](C)NC(=O)[C@H](CCC(=O)O)NC(=O)[C@H](CC(=O)O)NC1=O)NC(=O)[C@H](C)NC(=O)[C@H](CC(=O)O)NC2=O` (stereo partly drawn) [I-492, Ac-PL3-Asp-Ala-B5-Asp-Glu-Ala-Ala-Phe-Gln-S8-Phe-BztA-Hse-NH2], the “CHI Log D” value (CHI Log D procedure) is reported as 2.052, the IC50 [1, 3] is reported as 53 nM and the IC50 ([1]; read-out: FP EC50) is reported as 53 nM. For the same molecule, the “Solubility” value (Solubility in PBS) was 49 µM (≈ 88.9 µg/mL).
